The results in this text go back to ChEMBL document CHEMBL4507319 (2021).

The target in assay [1] is Ribosomal protein S6 kinase alpha-4 (Homo sapiens) (UniProt O75676). The conditions noted are these: Compound concentration 1000.0 nM.
The test system of a further assay is BXPC-3. Briefly: BxPC3 cell line Proliferation assay. The conditions noted are these: time 3 day. In kind it is functional, Homo sapiens.
Assay [2] addresses Serine/threonine-protein kinase 26 (Homo sapiens) (UniProt Q9P289). Briefly: MST4(h) Eurofins kinase panel. Particulars: Compound concentration 1.0 uM.
In assay [3] the target is T1, Mitogen-activated protein kinase 13 (Homo sapiens) (UniProt O15264).
T1 sequence (whole entry): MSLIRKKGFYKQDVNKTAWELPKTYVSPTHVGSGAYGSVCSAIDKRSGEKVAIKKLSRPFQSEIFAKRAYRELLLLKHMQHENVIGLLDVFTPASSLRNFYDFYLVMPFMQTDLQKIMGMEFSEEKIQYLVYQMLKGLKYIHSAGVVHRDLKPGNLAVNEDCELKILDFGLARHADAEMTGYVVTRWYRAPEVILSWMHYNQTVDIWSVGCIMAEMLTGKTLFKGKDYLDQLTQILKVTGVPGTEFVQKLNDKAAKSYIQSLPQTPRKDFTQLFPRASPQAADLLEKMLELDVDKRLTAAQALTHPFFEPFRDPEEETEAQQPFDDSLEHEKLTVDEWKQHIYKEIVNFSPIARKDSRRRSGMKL
Briefly: SAPK4(h) Eurofins kinase panel. Particulars: Compound concentration 1.0 uM.

For assay [4], the target named is 5'-AMP-activated protein kinase catalytic subunit alpha-1 (Homo sapiens, UniProt Q13131). Briefly: Eurofins kinase panel (PRKAA1). On the set-up: compound concentration 1 uM.
Chain of 5'-AMP-activated protein kinase catalytic subunit alpha-1 (Q13131 whole entry): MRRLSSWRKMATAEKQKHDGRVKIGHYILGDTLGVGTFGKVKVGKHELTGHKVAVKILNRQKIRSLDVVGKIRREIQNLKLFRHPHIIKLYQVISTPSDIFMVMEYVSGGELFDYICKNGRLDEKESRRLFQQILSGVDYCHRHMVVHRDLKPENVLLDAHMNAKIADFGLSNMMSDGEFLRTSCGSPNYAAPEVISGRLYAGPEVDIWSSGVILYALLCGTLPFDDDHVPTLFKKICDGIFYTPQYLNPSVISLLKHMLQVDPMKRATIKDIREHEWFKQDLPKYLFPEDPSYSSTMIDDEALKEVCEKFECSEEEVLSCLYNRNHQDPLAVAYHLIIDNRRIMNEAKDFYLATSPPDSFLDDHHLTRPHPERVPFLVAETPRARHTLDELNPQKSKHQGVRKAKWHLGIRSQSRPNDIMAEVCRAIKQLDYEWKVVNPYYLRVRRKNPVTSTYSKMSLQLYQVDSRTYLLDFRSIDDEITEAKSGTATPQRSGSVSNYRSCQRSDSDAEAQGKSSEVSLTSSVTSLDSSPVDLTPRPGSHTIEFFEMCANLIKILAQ
For assay [5], the target named is Protein kinase C alpha type (Homo sapiens) (UniProt P17252). Briefly: PKCalpha (h) Eurofins kinase panel. The conditions noted are these: Compound concentration 1.0 uM.
Assay [6] has as its target T2, Inhibitor of nuclear factor kappa-B kinase subunit alpha (Homo sapiens) (UniProt O15111).
T2 sequence (whole entry): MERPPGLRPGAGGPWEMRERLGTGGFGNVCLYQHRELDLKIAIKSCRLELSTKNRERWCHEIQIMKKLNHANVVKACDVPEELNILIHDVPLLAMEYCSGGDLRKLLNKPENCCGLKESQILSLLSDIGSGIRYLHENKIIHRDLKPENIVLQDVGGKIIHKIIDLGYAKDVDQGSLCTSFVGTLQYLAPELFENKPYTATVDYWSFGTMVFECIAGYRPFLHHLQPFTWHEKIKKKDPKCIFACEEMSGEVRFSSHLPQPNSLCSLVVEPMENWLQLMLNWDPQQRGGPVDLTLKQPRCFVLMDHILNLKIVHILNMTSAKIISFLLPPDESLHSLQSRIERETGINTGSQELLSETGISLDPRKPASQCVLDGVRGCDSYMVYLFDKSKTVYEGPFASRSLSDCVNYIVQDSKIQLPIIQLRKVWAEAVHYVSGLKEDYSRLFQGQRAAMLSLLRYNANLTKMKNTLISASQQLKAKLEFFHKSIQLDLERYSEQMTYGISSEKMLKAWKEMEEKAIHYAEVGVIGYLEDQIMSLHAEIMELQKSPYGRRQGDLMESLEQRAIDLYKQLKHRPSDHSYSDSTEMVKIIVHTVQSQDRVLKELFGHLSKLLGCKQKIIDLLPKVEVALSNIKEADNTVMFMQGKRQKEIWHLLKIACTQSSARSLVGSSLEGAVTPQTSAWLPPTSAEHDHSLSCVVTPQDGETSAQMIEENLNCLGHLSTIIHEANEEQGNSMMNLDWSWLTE
Briefly: IKKalpha(h) Eurofins kinase panel. Particulars: Compound concentration 1.0 uM.

Another assay concerns CWR22R. Briefly: 22Rv1 cell line Proliferation assay. In kind it is functional, Homo sapiens. Particulars: time 6 day.
Assay [7] addresses Protein kinase C zeta type (Homo sapiens) (UniProt Q05513). Briefly: PKCzeta(h) Eurofins kinase panel. Particulars: Compound concentration 1.0 uM.
Assay [8] deals with T3, Dual specificity protein kinase TTK (Homo sapiens) (UniProt P33981).
T3 sequence (whole entry): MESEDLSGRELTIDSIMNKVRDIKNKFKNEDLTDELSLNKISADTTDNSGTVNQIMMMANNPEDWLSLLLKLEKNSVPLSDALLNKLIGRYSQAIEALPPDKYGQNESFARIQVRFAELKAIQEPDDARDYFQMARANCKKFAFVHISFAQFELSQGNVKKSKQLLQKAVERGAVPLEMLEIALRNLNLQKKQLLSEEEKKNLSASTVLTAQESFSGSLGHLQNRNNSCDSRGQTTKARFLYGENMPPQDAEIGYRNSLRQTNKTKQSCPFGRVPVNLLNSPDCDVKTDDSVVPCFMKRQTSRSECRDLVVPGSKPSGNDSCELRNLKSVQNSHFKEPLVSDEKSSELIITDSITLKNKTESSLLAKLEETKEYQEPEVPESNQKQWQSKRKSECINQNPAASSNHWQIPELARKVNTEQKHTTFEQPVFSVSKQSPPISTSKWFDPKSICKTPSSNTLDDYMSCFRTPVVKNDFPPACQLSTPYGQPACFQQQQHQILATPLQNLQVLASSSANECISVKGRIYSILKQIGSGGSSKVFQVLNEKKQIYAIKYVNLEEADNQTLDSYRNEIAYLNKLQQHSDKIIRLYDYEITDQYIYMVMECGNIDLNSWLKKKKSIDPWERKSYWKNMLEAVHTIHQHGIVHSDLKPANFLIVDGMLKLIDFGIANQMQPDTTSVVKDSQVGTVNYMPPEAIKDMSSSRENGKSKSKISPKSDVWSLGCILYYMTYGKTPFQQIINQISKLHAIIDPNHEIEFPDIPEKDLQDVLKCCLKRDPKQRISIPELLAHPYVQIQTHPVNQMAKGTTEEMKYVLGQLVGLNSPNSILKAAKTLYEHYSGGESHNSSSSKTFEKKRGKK
Briefly: TTK(h) Eurofins kinase panel. Particulars: Compound concentration 1.0 uM.

Activity calls are given as the source filed them. No cut-off for these calls is given here.

Chain of Ribosomal protein S6 kinase alpha-4 (Homo sapiens) (O75676 whole entry, looked up): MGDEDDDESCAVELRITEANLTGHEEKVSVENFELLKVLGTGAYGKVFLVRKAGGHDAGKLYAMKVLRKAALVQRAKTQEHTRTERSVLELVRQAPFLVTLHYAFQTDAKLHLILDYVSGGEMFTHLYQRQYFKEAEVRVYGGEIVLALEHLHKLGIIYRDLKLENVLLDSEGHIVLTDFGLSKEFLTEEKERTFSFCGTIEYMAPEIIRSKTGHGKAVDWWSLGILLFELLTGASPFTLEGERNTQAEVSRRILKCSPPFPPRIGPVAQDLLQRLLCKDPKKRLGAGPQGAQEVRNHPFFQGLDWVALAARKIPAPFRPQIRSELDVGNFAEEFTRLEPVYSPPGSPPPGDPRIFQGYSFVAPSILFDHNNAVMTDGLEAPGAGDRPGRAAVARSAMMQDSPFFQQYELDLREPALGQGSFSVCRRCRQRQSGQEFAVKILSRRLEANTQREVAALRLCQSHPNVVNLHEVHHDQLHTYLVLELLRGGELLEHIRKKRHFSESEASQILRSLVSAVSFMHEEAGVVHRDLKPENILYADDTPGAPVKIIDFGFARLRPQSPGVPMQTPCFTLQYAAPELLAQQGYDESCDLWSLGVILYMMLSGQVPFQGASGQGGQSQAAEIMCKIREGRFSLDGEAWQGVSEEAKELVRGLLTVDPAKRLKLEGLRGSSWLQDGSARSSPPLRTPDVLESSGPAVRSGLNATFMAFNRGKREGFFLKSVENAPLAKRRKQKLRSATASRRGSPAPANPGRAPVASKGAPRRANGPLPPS
Chain of Serine/threonine-protein kinase 26 (Homo sapiens) (Q9P289 2-416 limits assumed): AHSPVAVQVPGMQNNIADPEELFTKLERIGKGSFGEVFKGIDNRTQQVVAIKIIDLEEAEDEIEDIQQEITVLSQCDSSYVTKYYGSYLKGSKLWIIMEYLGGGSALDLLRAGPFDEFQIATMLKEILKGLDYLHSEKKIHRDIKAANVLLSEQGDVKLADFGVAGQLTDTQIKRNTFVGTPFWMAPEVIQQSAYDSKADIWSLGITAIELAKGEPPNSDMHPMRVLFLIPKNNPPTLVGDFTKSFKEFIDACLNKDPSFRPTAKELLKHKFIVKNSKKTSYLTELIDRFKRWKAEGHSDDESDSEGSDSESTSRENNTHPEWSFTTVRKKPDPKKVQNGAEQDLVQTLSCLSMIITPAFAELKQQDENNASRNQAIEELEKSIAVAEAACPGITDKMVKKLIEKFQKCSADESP
Chain of Protein kinase C zeta type (Homo sapiens) (Q05513 whole entry): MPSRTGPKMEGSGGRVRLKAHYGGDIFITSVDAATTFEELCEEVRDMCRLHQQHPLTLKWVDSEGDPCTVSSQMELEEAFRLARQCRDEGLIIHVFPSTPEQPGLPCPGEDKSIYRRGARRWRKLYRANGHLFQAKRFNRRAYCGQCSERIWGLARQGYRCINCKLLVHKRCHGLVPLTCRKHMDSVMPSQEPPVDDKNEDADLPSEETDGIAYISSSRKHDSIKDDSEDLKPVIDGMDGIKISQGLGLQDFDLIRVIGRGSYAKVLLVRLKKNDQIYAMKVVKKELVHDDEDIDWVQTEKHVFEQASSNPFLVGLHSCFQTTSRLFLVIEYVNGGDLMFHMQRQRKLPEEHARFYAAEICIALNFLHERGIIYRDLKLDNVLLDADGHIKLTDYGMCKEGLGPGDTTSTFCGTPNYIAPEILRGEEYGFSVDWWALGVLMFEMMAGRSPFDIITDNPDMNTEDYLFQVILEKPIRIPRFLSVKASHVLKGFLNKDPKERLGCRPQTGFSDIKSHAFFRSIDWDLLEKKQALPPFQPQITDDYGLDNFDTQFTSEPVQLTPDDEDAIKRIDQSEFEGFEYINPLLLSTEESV

For orientation: residual activity means the share of the control activity or signal that is left under treatment. In the case of `CC1=C(C#N)C(c2ccc3c(c2)c(NC(=O)c2ccccc2C)nn3C)C(C#N)=C(C)N1` [BAY-974], the residual activity in assay [1] was 100%.

The IC50 is the concentration that gives 50% inhibition. `CCc1ccccc1C(=O)Nc1n[nH]c2c(C)c(F)c(C3C(C#N)=C(C)N(C)C(C)=C3C#N)cc12` [BAY-3827]: the results for the “Cell Proliferation IC50” value in the assay on BXPC-3 and in the assay on CWR22R were 11.4 µM and 5.55 µM, respectively. Moreover, the % residual kinase activity in assay [2] was 84%; in assay [3], 111%; in assay [5], 44%; in assay [6], 107%; in assay [7] it was 99%; in assay [8], 90%. In addition, the 50% inhibitory concentration (IC50) in assay [4] was 0.007 µM (active).
